Assay results taken from ChEMBL document CHEMBL1201862, “PubChem BioAssay data set” (2004).
The source made the active and inactive calls.

Tests used:
[1] = test system: Streptococcus sp. 'group A'; test: Streptococcus pyogenes SK(-)GAS viability under kanamycin – luminescence, BacTiterGlo, confirmation, counter-screen for streptokinase expression inhibitor project, dose response (AID 1900); format: functional, organism-based
Streptokinase A = biological target: T1, Streptokinase A (Streptococcus pyogenes serotype M1, UniProt P10520); test: viability-normalized secreted streptokinase activity reduction – plasminogen activation absorbance, OD405, dose response (AID 1914); format: functional, Streptococcus pyogenes M1 GAS;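 further: secreted streptokinase activity via plasminogen activation per viability signal from cell pellet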
T1 sequence (P10520 whole entry): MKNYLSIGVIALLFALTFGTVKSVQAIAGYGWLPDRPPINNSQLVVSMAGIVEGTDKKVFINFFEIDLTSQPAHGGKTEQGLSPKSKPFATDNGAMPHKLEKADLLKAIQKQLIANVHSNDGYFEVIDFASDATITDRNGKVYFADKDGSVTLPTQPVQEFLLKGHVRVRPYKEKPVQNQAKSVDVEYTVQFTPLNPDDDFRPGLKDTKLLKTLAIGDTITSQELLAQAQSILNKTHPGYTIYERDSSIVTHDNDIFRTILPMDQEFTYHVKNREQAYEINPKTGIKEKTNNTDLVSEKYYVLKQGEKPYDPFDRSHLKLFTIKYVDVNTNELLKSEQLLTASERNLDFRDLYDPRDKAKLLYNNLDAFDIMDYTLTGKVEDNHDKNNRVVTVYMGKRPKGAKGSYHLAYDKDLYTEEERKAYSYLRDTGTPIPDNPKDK

Streptococcus = test: GAS UMAA2166 growth inhibition – luminescence, BacTiterGlo, counter-screen for streptokinase expression inhibitor project, dose response (AID 1915); format: functional, organism-based;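 further: potency for reduction of bacterial viability or growth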
[2] = Luminescence Cell-Based Dose Retest to Confirm Inhibitors of Cancer Stem Cells. [Related pubchem assays (depositor defined):AID2717, AID2721]; format: functional; conditions: Homo sapiens
[3] = biological target: T2, Rac GTPase-activating protein 1 (Homo sapiens, UniProt Q9H0H5); test: blockers of MgcRacGAP-driven Rac1 GTP hydrolysis – biochemical, ADP Hunter fluorescence, primary and confirmatory, confirmation (AID 624330); format: functional
T2 sequence (Q9H0H5 whole entry): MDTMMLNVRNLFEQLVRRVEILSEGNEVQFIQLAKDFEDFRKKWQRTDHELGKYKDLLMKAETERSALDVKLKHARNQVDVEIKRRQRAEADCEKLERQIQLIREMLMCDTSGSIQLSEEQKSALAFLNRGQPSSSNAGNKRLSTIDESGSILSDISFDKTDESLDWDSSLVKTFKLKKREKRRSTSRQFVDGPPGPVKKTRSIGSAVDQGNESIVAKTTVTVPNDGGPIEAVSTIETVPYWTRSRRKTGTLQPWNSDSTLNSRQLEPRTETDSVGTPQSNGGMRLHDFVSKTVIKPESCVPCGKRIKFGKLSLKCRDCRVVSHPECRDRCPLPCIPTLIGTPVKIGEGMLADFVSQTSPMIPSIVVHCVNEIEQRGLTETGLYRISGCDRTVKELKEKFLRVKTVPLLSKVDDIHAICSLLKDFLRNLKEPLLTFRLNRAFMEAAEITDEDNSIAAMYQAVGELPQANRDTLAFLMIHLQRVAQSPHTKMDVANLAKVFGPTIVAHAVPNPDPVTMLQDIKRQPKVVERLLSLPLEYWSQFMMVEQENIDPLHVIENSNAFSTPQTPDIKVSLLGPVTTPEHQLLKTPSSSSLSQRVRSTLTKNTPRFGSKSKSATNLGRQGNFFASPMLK

H4 = test: Luminescence Cell-Based Dose Response HTS to Identify Activators of 5'UTR Stem-Loop Driven Prion Protein mRNA Translation in H4 Neuroglioblastoma Cells. [Related pubchem assays: 1829 (Project Summary), 1814 (Primary HTS)]; format: functional; conditions: Homo sapiens
Cytochrome P450 2C9 = Cytochrome P450 2C9 (Homo sapiens, UniProt P11712)
Sequence of Cytochrome P450 2C9 (P11712 whole entry): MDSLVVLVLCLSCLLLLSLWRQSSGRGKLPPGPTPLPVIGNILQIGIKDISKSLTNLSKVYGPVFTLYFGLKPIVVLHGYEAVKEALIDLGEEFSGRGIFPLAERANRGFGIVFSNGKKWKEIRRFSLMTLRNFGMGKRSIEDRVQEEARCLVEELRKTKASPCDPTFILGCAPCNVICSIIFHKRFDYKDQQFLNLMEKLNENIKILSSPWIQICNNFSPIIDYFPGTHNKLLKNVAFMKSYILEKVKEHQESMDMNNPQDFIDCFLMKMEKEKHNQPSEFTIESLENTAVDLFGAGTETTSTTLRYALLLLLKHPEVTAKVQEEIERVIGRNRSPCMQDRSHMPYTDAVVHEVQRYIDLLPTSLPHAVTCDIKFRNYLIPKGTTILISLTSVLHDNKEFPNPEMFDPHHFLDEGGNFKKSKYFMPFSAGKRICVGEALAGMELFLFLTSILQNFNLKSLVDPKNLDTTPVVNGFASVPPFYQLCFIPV

Cytochrome P450 3A4 = Cytochrome P450 3A4 (Homo sapiens, UniProt P08684);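 further: CYP3A4 tested as one member of a cytochrome P450 panel screen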
Sequence of Cytochrome P450 3A4 (P08684 whole entry): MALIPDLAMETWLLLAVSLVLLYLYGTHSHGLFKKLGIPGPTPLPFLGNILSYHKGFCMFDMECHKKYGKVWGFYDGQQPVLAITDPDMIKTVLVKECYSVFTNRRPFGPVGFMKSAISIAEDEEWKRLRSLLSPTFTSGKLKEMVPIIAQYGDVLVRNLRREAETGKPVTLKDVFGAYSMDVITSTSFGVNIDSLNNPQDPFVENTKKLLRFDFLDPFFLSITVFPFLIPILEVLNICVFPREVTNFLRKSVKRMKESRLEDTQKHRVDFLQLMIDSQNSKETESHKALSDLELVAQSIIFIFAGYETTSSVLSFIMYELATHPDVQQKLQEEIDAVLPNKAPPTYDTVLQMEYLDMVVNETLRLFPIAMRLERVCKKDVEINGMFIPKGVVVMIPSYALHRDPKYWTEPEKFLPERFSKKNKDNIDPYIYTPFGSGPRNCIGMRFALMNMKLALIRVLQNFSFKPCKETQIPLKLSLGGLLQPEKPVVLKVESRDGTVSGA

Cytochrome P450 1A2 = biological target: T3, Cytochrome P450 1A2 (Homo sapiens, UniProt P05177);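 further: PubChem cytochrome P450 panel assay, CYP1A2 panel member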
T3 sequence (P05177 whole entry): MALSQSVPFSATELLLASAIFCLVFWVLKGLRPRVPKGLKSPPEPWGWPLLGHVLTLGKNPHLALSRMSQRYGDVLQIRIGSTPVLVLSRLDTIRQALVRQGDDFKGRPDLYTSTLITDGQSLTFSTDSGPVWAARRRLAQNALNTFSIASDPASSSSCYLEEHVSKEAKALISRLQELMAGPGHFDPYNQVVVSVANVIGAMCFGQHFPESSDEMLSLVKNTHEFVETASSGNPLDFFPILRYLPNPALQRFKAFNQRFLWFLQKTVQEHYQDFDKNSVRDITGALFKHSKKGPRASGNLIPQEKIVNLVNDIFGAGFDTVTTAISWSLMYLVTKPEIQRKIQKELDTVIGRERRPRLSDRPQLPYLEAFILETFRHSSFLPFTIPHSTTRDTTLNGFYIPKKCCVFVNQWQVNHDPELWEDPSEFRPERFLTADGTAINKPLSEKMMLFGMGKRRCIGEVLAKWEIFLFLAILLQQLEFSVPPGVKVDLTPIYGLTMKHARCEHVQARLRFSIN

Cytochrome P450 2D6 = Cytochrome P450 2D6 (Homo sapiens, UniProt P10635);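 further: CYP2D6 member of a cytochrome P450 panel assay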
Sequence of Cytochrome P450 2D6 (P10635 whole entry): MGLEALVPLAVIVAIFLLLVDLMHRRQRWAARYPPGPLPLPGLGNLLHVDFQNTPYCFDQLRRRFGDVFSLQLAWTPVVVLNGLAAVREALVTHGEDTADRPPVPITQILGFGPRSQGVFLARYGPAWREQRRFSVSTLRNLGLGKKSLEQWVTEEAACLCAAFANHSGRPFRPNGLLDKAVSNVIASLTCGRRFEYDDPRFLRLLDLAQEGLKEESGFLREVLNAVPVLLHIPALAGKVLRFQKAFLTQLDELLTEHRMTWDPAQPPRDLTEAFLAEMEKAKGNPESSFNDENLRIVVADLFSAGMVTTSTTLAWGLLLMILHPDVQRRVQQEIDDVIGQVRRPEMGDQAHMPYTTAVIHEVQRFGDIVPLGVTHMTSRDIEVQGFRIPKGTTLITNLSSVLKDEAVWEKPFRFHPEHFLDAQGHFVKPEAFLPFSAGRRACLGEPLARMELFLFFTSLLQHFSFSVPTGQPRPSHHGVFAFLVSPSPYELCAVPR

Cytochrome P450 2C19 = Cytochrome P450 2C19 (Homo sapiens, UniProt P33261); test: Cytochrome panel assay with activity outcomes. Panel member name: p450-cyp2c19 Compounds with AC50 equal or less than 10 uM are considered active; format: functional; conditions: read-out: AC50
Sequence of Cytochrome P450 2C19 (P33261 whole entry): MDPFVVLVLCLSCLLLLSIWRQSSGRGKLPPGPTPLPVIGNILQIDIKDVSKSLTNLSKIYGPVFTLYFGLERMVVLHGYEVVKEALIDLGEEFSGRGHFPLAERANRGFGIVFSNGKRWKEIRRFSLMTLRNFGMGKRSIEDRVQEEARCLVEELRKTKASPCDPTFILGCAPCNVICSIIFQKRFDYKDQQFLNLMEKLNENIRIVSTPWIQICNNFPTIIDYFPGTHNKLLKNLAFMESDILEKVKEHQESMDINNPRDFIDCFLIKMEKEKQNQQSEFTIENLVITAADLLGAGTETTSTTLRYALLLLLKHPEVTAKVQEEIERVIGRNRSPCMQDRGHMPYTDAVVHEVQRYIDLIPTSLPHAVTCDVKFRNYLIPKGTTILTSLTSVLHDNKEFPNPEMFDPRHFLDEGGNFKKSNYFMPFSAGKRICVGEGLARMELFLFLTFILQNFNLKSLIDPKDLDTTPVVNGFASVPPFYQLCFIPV

[4] = NIH3T3 cell viability loss – ATP luminescence, mouse fibroblasts, counter-screen, dose response (AID 2010); format: functional, cell-based;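 further: cells exposed to compound for about 90 hours before reading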
[5] = Trypanosoma cruzi growth suppression in host cells – NIH3T3 host cells, beta-gal luminescence, confirmation (AID 2044); format: functional, cell-based;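 further: intracellular parasites grown in NIH/3T3 mouse fibroblasts as host cells; luminescent beta-galactosidase reporter signal from transgenic T. cruzi replicating inside host cells; inhibitors lower the luminescence signal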

CCc1ccc(/C=C/c2c([N+](=O)[O-])c(=O)n(C)c(=O)n2C)cc1
EC50 [1]: 4.55 µM (active) | EC50 (Streptokinase A): > 150 µM (not active) | EC50 (Streptococcus): 18 µM (active)

COc1ccc(-c2sc3ccccc3c2C#CC2(O)CCCCC2)cc1
EC50 [1]: 3.52 µM (active) | AC50 [2]: 3.73 µM (active) | EC50 (Streptokinase A): 6.81 µM (active) | EC50 (Streptococcus): 8.22 µM (active)

O=C(c1cc(-c2cccs2)nc2ccccc12)N1CCN(c2ccccc2O)CC1
EC50 [1]: 21.8 µM (active) | EC50 (Streptokinase A): 144 µM (active) | EC50 (Streptococcus): 54.8 µM (active)

CN1CCN(NC(=O)Nc2cc(Cl)cc(Cl)c2)CC1
EC50 [1]: 6.77 µM (active) | EC50 (Streptokinase A): 21.7 µM (active) | EC50 (Streptococcus): > 150 µM (not active)

CCn1c2ccccc2c2cc(NS(=O)(=O)c3ccc(C)cc3)ccc21
AC50 [2]: 2.87 µM (active)

CCOC(=O)c1c(N)sc2c(OC)c(Br)ccc12
IC50 [3]: 203 µM (active)

COc1ccccc1C(=O)COC(=O)c1ccc(N(C)C)cc1
EC50 (H4): 1.79 µM (active)

Cc1ccc(-n2nnnc2SCC(=O)c2cc(C)n(-c3cc(C)on3)c2C)c(C)c1
EC50 [1]: 25.6 µM (active) | EC50 (Streptokinase A): 89.2 µM (active) | EC50 (Streptococcus): > 150 µM (not active)

CCN(CC)c1ccc(S(=O)(=O)Nc2cc(Cl)ccc2Cl)cc1NC(=S)NC(=O)C1CCCC1
AC50 [2]: 1.65 µM (active)

CC(C)N1CCN(C(=O)c2cccc(Cl)c2)CC1
IC50 [3]: 295 µM (active)

Oc1ccc2c(ccc3[nH]cnc32)c1
IC50 [3]: 43.9 µM (active)

CC(=O)N1CCC2(CCCN(C(c3ccccc3)c3ccccc3)C2)CC1
AC50 (Cytochrome P450 2C9): 31.6 µM (inconclusive) | AC50 (Cytochrome P450 3A4): 12.6 µM (inconclusive)

O=C(Nc1ccc2c(c1)nc1n2CCN(C2CCCCC2)C1)NC1CCCCC1
AC50 (Cytochrome P450 3A4): 15.8 µM (inconclusive)

Oc1ccc(Br)cc1CNn1cnnc1
AC50 (Cytochrome P450 2C9): 17.8 µM (inconclusive) | AC50 (Cytochrome P450 1A2): 14.1 µM (inconclusive) | AC50 (Cytochrome P450 3A4): 35.5 µM (inconclusive)

CCn1c(C)nc2cc(C(=O)NNC(=S)NC(=O)c3ccc(OC)cc3)ccc21
EC50 [1]: 9.55 µM (active) | EC50 (Streptokinase A): > 150 µM (not active) | EC50 (Streptococcus): 95.3 µM (active)

O=S(=O)(Nc1cc(O)nc(SCc2ccc(Cl)cc2)n1)c1ccccc1
AC50 [2]: 4.07 µM (active)

Cc1sc2ncnc(N3CCC(C(=O)Nc4ccc(Cl)cc4Cl)CC3)c2c1C
EC50 [1]: 23.6 µM (active) | EC50 (Streptokinase A): 91.7 µM (active) | EC50 (Streptococcus): 66 µM (active)

O=C(CSc1nc(-c2ccc(Cl)cc2)nc(=O)[nH]1)Nc1cccc(Cl)c1
EC50 (Streptokinase A): 4.65 µM (active)

N#Cc1cccc(NC(=O)N2CC3(CCN(C(=O)c4cc(C(F)(F)F)cc(C(F)(F)F)c4)CC3)C2)c1
AC50 (Cytochrome P450 3A4): 31.6 µM (inconclusive) | AC50 (Cytochrome P450 2D6): 20 µM (inconclusive)

Cc1cc(NC(=O)c2cnccn2)no1
EC50 [1]: > 150 µM (not active) | EC50 (Streptokinase A): > 150 µM (not active) | EC50 (Streptococcus): > 150 µM (not active)

CCC(Nc1cc(OC)ccc1OC)=C1C(=O)NC(=O)NC1=O
AC50 (Cytochrome P450 2C19): 31.6 µM (inconclusive) | AC50 (Cytochrome P450 3A4): 39.8 µM (inconclusive)

NC(=NNC(=O)c1sccc1OCc1ccc(Cl)cc1Cl)c1ccccn1
EC50 (Streptokinase A): 35.4 µM (active)

Cc1nc(Nc2nc(-c3ccccc3)cc(=O)[nH]2)nc2ccccc12
EC50 (Streptokinase A): > 150 µM (not active)

O=C(NCc1cc(F)cc2c1OCCO2)[C@H]1C[C@@H]1[C@H](NP(=O)(c1ccccc1)c1ccccc1)c1ccccc1
AC50 (Cytochrome P450 3A4): 3.98 µM (inconclusive)

O=C1CC(=O)N(CCc2ccc(F)cc2)C(=O)N1
AC50 (Cytochrome P450 2C9): 25.1 µM (inconclusive) | AC50 (Cytochrome P450 2C19): 31.6 µM (inconclusive) | AC50 (Cytochrome P450 3A4): 31.6 µM (inconclusive)

Nc1ccc(OCCc2ccccc2)cc1
IC50 [3]: 31.2 µM (active)

Cc1ccc(-c2nc3nc(O)cc(NC(=O)c4cccs4)n3n2)cc1
EC50 [1]: 15.4 µM (active) | EC50 (Streptokinase A): > 150 µM (not active) | EC50 (Streptococcus): > 150 µM (not active)

COc1ccc(CNc2ncc(-c3ccc(Br)cc3)n2C)cc1OC
IC50 [3]: 55.6 µM (active)

CC(C)c1ccc(C(=O)NC(=S)Nc2ccc3[nH]c(=O)[nH]c3c2)cc1
EC50 (Streptokinase A): > 150 µM (not active)

Cc1ccc(NC(=S)NC(=O)c2ccc(F)cc2)cc1S(=O)(=O)Nc1cccc(Cl)c1
EC50 [1]: 1.48 µM (active) | EC50 (Streptokinase A): 11.5 µM (active) | EC50 (Streptococcus): 54.2 µM (active)

COc1ccc(C(=O)CSc2[nH]c(=O)cc(C(F)(F)F)c2C#N)cc1
EC50 (Streptokinase A): 8.62 µM (active)

CCN1CCN(CC(=O)Nc2nc3ccccc3s2)CC1
IC50 [3]: 55.7 µM (active)

O=C(c1c(Cl)cccc1Cl)N1CCN(c2cccc3[nH]ccc23)CC1
IC50 [3]: 50.4 µM (active)

CCC(=O)NNc1ccc(Br)cc1
AC50 [2]: 1.82 µM (active)

Cc1ccc(/C(C#N)=C\c2ccc(N3CCOCC3)o2)cc1
EC50 [4]: > 60 µM (inconclusive) | IC50 [3]: 65.6 µM (active) | EC50 [5]: 4.37 µM (active)

CN(C)c1ncc2ncc(=O)n(Cc3cccs3)c2n1
AC50 (Cytochrome P450 2C9): 39.8 µM (inconclusive) | AC50 (Cytochrome P450 3A4): 15.8 µM (inconclusive) | AC50 (Cytochrome P450 2D6): 12.6 µM (inconclusive)

CCOC(=O)c1c(-c2ccccc2)csc1NC(=O)c1nn(CC)cc1Br
EC50 [4]: > 60 µM (not active) | EC50 [5]: 2.06 µM (active) | AC50 [2]: 0.506 µM (active)

O=C(CN1CCN(S(=O)(=O)c2ccccc2F)CC1)N1CCc2ccccc2C1
IC50 [3]: 47.1 µM (active)

Cc1ccc2c(c1)N(CCC(=O)NCCN1CCOCC1)C(=O)CO2
AC50 (Cytochrome P450 2C9): 39.8 µM (inconclusive) | AC50 (Cytochrome P450 2C19): 39.8 µM (inconclusive) | AC50 (Cytochrome P450 3A4): 25.1 µM (inconclusive)

CN(CC(=O)Nc1ccccc1Cl)C(=O)c1cccc(-n2cccc2)c1
AC50 [2]: > 195 µM (inactive)

C/C(=N\NC(=S)Nc1ccc(F)cc1)c1ccc2c(c1)OCCO2
AC50 [2]: 1.02 µM (active)

C/C(N=Nc1ccccc1O)=N\Nc1nc2ccccc2s1
AC50 [2]: 3.71 µM (active)

O=c1[nH]c2ccccc2/c(=N\S(=O)(=O)c2ccc(Cl)cc2)n1-c1ccccc1
AC50 (Cytochrome P450 2C9): 0.891 µM (inconclusive) | AC50 (Cytochrome P450 1A2): 8.91 µM (inconclusive) | AC50 (Cytochrome P450 2C19): 25.1 µM (inconclusive) | AC50 (Cytochrome P450 3A4): 2.82 µM (inconclusive)

COCc1cc(C)nc(OCC(=O)N/N=C/c2ccc(O)cc2)c1C#N
IC50 [3]: 83.2 µM (active)

O=c1[nH]c(=S)[nH]c(-c2ccccc2)c1Cc1c(O)ccc2ccccc12 [CAMBINOL]
AC50 (Cytochrome P450 2C9): 7.94 µM (inconclusive) | AC50 (Cytochrome P450 1A2): 1 µM (inconclusive) | AC50 (Cytochrome P450 2C19): 0.0794 µM (inconclusive) | AC50 (Cytochrome P450 3A4): 0.631 µM (inconclusive)
